This data set concerns the target HSD17B13. The conditions noted are these: ASO, HepaRG.

Drawing on the OligoGym collection, this text covers target mRNA inhibition for 87 sequences.

After the bases stand the sugars from the 5' end (letter, count) and the backbone: PS all phosphorothioate, else s phosphorothioate and o phosphodiester by linkage. Methylation of C is not given here. e = 2'-O-(2-methoxyethyl) (MOE); k = constrained ethyl (cEt); d = 2'-deoxy (DNA); m = 2'-O-methyl

With CTCATTTAGCAGCTTG (sugars k3 d10 k3, PS), the target mRNA inhibition was determined as 1% (0.02 µM); 10% (0.078 µM); 46% (0.313 µM); 70% (1 µM); 65% (1.25 µM); 90% (5 µM).
Turning to CTCCTGAGTCTTTCTA (sugars k3 d10 k3, PS), the target mRNA inhibition (1 µM) was 23%.
The same measure, in the same setting: the same measure for CTCTAAGTGTAAGAGA (sugars k3 d10 k3, PS): 28%.
In the case of CTCTATTGATTGGCTT (sugars k3 d10 k3, PS), the target mRNA inhibition (1 µM) worked out at 65%.
Still for that read-out and setting: the same measure for CTCTCCATCATCGATG (sugars k3 d10 k3, PS): 0%.
Same read-out and setting: the same measure for CTCTGTGAAAGCCAAC (sugars k3 d10 k3, PS): 50%.
Consider “CTCTTAGCTGTGCACT (sugars k3 d9 k3 e1, PS)”, for which the target mRNA inhibition is 0% (0.02 µM); 20% (0.078 µM); 0% (0.313 µM); 66% (1 µM); 39% (1.25 µM); 79% (5 µM).
For the setting “1 µM”, CTCTTGACAATGGTTG (sugars k3 d10 k3, PS) registered a target mRNA inhibition of 50%.
“CTCTUAGCTGTGCACT (sugars k3 d1 m1 d8 k3, PS)”: the target mRNA inhibition worked out at 16% (0.02 µM); 14% (0.078 µM); 33% (0.313 µM); 67% (1 µM); 52% (1.25 µM); 58% (5 µM).
In turn, CTGAAAAGCCCTATTC (sugars k3 d10 k3, PS) returned a target mRNA inhibition (1 µM) of 11%.
On to “CTGAAATTGATACACC (sugars k3 d1 m1 d8 k3, PS)”, for which the target mRNA inhibition (1 µM) was determined as 71%.
The same measure, in the same setting: for CTGATATGAGTAAAGA (sugars k3 d10 k3, PS) the value was 21%.
On the same count and under the same terms, for “CTGCATTAATGCCACC (sugars k3 d9 k3 e1, PS)” the value was 40%; for “CTGCATTAATGCCACC (sugars kkdddddddddkekek, PS)”, 6%.
“CTGCTGCTAGTGCCAA (sugars k3 d9 k3 e1, PS)” gave a target mRNA inhibition (1 µM) of 66%.
On the same count and under the same terms, the same measure for “CTGCTGCTAGTGCCAA (sugars kkdddddddddkekek, PS)”: 44%; for “CTGGAACAATATGGGA (sugars k3 d1 m1 d9 k2, PS)”: 45%.
Same read-out and setting: for “CTGGAACAATATGGGA (sugars k3 d9 k3 e1, PS)” the value was 36%; for “CTGGAACAATATGGGA (sugars kkdddddddddkekek, PS)”, 33%; for CTGGAAGATTAATCAT (sugars k3 d10 k3, PS), 31%.
On the same count and under the same terms, for CTGGAGAAGAGTTTAC (sugars k3 d10 k3, PS) the value was 38%.
As to CTGTAAGAGTCAGTAT (sugars k3 d10 k3, PS), the target mRNA inhibition (1 µM) is 42%.
On the same count and under the same terms, the same measure for CTGTATTAAGACAGTT (sugars k3 d10 k3, PS): 41%; for CTGTCATAAAGGTGGG (sugars k3 d10 k3, PS): 59%; for CTGTGACGATGTGGCC (sugars k3 d10 k3, PS): 28%.
Still for that read-out and setting: for “CTGTGGCATGGCTACA (sugars kkdddddddddkekek, PS)” the value was 33%; for CTGTGTAAATAAGTTC (sugars k3 d10 k3, PS), 38%; for “CTGTGTTAGCTTTAAT (sugars kkdddddddddkekek, PS)”, 47%.
On the same count and under the same terms, the same measure for “CTTAAACCTTCCCTGT (sugars k3 d1 m1 d8 k3, PS)”: 24%; for “CTTAAACCTTCCCTGT (sugars k3 d9 k3 e1, PS)”: 34%.
Under “1 µM”, CTTAAGAGAAGGTGCA (sugars k3 d10 k3, PS) registered a target mRNA inhibition of 43%.
On the same count and under the same terms, for “CTTAAGATACCCAGGT (sugars k3 d9 k3 e1, PS)” the value was 45%; for CTTACATATTGCATAC (sugars k3 d10 k3, PS), 35%; for CTTAGTGTAGAATTGT (sugars k3 d10 k3, PS), 56%.
The same measure, in the same setting: the same measure for “CTTATTGGTAAGTATT (sugars k3 d9 k3 e1, PS)”: 24%; for CTTATTGGTAAGTATT (sugars k3 d10 k3, PS): 22%.
The sequence CTTCACCAACGACTCC (sugars k3 d10 k3, PS) came in with a target mRNA inhibition (1 µM) of 8%.
The same measure, in the same setting: for CTTCAGAGTTATACAG (sugars k3 d10 k3, PS) the value was 35%.
With “CTTCATAGTGGACTTC (sugars k3 d1 m1 d8 k3, PS)”, the target mRNA inhibition (1 µM) was found to be 35%.
The same measure, in the same setting: the same measure for CTTCTATTGTATGAGG (sugars k3 d10 k3, PS): 40%; for CTTCTGTAGGTTTTGC (sugars k3 d10 k3, PS): 60%.
Still for that read-out and setting: for “CTTGAACAGTCTTAAA (sugars kkdddddddddkekek, PS)” the value was 38%.
For CTTGAATAGCAAGCCA (sugars k3 d10 k3, PS), the target mRNA inhibition (1 µM) is 25%.
Same read-out and setting: for “CTTGATCTCTTAGCTG (sugars k3 d9 k3 e1, PS)” the value was 36%.
For the sequence CTTGATGTAGTGGGAG (sugars k3 d10 k3, PS), the target mRNA inhibition stood at 0% (0.02 µM); 4% (0.078 µM); 21% (0.313 µM); 83% (1 µM); 62% (1.25 µM); 80% (5 µM).
On to “CTTGATGTAGTGGGAG (sugars kkdddddddddkekek, PS)”, for which the target mRNA inhibition (1 µM) was determined as 20%.
For the sequence CTTTTAACTACCCTCA (sugars k3 d10 k3, PS), the target mRNA inhibition (1 µM) was 16%.
The same measure, in the same setting: for CTTTTAGGGAGGTAGC (sugars k3 d10 k3, PS) the value was 62%; for “CTTTTTATAGACTGGG (sugars k3 d9 k3 e1, PS)”, 44%.
On the same count and under the same terms, for CTTTTTATAGACTGGG (sugars k3 d10 k3, PS) the value was 67%; for GAAAAAGGTTATCATG (sugars k3 d10 k3, PS), 31%.
GAAACCAATCCTCAGC (sugars k3 d10 k3, PS) displayed a target mRNA inhibition (1 µM) of 3%.
The same measure, in the same setting: for GAAACTTGATCTCTTA (sugars k3 d10 k3, PS) the value was 64%; for “GAAACTTGATCTCTTA (sugars kkdddddddddkekek, PS)”, 54%; for GAAATAACTGTTCTCC (sugars k3 d10 k3, PS), 32%.
On the same count and under the same terms, the same measure for GAACAATATGGGATGA (sugars k3 d10 k3, PS): 26%; for “GAACAGTCTTAAACCT (sugars k3 d9 k3 e1, PS)”: 64%.
The same measure, in the same setting: the same measure for GAACAGTCTTAAACCT (sugars k3 d10 k3, PS): 64%.
GAACAGTTCAACTGAA (sugars k3 d10 k3, PS) returned a target mRNA inhibition (1 µM) of 10%.
GAACATACATTGTTGC (sugars k3 d10 k3, PS): the target mRNA inhibition (1 µM) came out at 58%.
Same read-out and setting: the same measure for GAACTGTGTTGCTTGT (sugars k3 d10 k3, PS): 77%.
For the sequence GAAGACTACATTAACA (sugars k3 d10 k3, PS), the target mRNA inhibition (1 µM) was determined as 36%.
On the same count and under the same terms, for GAAGAGGCTAGGGAAA (sugars k3 d10 k3, PS) the value was 44%.
Regarding GAAGATCGGCTGGATA (sugars k3 d10 k3, PS), the target mRNA inhibition (1 µM) came to 16%.
Same read-out and setting: for GAATAGGAGAGTCTTT (sugars k3 d10 k3, PS) the value was 58%; for GAATCATGATTGAATT (sugars k3 d10 k3, PS), 39%.
Sequence GAATCATTAAGCTTAG (sugars k3 d10 k3, PS) gave a target mRNA inhibition (1 µM) of 63%.
Sequence GAATGCTACTTGAACA (sugars k3 d10 k3, PS) yielded a target mRNA inhibition (1 µM) of 44%.
On the same count and under the same terms, the same measure for “GAATGCTACTTGAACA (sugars kkdddddddddkekek, PS)”: 48%; for GAATTATTTCTTGCGA (sugars k3 d10 k3, PS): 61%; for GACACTAATTTAGTCA (sugars k3 d10 k3, PS): 11%.
Still for that read-out and setting: for “GACAUGAGGTTTTGAT (sugars k3 d1 m1 d8 k3, PS)” the value was 34%.
Regarding GACCATGCTGCTACTC (sugars k3 d10 k3, PS), for the setting “1 µM”, the target mRNA inhibition was determined as 74%.
Still for that read-out and setting: for GACTATAAAAAGGGAG (sugars k3 d10 k3, PS) the value was 40%; for “GACTGCTGCTAGTGCC (sugars k3 d9 k3 e1, PS)”, 49%; for GACTTCTTACGACTTC (sugars k3 d10 k3, PS), 38%.
On the same count and under the same terms, for GAGAAATCTAAGAACC (sugars k3 d10 k3, PS) the value was 42%; for “GAGACATGAGGTTTTG (sugars kkdddddddddkekek, PS)”, 49%; for GAGATAAAGCTGCCTG (sugars k3 d10 k3, PS), 67%.
On the same count and under the same terms, for GAGATTACCCCTGGCT (sugars k3 d10 k3, PS) the value was 72%.
On to GAGCGATAGATCTCTT (sugars k3 d10 k3, PS), for which, for the setting “1 µM”, the target mRNA inhibition was found to be 0%.
In turn, GAGTAAACGACTCTGT (sugars k3 d10 k3, PS) came in with a target mRNA inhibition (1 µM) of 43%.
Still for that read-out and setting: the same measure for GAGTAATCAGTTTTCC (sugars k3 d10 k3, PS): 65%; for GAGTAGATGATGGTGA (sugars k3 d10 k3, PS): 28%.
GAGTAGTGGAGCCAGA (sugars k3 d10 k3, PS) came in with a target mRNA inhibition (1 µM) of 44%.
On the same count and under the same terms, for GAGTCATAATTTGCTT (sugars k3 d10 k3, PS) the value was 57%.
Same read-out and setting: for “GAGTCGGTCACCTTTC (sugars k3 d1 m1 d8 k3, PS)” the value was 55%.
